Where two headings read alike, the source gives them in different places.
Tests used:
Assay type in all cases: biochemical
[1] = target: T1, mouse 17β-HSD1 (Mus musculus, UniProt P51656); experiment: Inhibition of mouse 17β-HSD1 (recombinant, HEK293 lysate); settings: for IC50: read-out: IC50 m17β-HSD1
T1 construct: made in house; host or cells: HEK293 cells, transient transfection; 1,000 g supernatant of the cell lysate
T1 sequence (P51656 1-344): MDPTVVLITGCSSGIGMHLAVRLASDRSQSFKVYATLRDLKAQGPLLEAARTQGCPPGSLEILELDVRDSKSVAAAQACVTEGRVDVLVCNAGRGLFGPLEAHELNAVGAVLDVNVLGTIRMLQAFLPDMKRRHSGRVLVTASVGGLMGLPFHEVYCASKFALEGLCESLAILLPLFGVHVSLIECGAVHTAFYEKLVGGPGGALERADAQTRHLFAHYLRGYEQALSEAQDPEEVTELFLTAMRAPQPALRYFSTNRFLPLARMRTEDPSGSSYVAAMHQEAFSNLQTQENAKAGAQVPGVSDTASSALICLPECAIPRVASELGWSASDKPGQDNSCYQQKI

[2] = target: T2, mouse 17β-HSD2 (Mus musculus, UniProt P51658); experiment: Inhibition of mouse 17β-HSD2 (liver microsomal fraction); settings: for IC50: read-out: IC50 m17β-HSD2; for inhibition at 0.1 µM: read-out: % inhibition m17β-HSD2 @ 100 nM; for inhibition at 0.05 µM: read-out: % inhibition m17β-HSD2 @ 50 nM
T2 construct: The pellet fractions containing the microsomal 17β-HSD2 were used for the determination of E1 formation; from tissue; host or cells: mouse liver, microsomal fraction
T2 sequence (P51658 1-381): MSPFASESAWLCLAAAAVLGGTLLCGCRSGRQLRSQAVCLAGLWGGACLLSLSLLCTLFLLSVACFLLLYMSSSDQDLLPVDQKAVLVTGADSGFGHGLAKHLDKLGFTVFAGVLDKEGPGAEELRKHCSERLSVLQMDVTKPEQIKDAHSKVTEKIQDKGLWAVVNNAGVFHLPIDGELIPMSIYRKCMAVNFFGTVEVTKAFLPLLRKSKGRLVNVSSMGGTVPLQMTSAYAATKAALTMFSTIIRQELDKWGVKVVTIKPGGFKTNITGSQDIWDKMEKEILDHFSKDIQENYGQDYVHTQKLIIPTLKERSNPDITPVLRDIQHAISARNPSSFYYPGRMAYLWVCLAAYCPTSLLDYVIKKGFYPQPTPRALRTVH
Experimental: Microsomal 17β-HSD2 fractions were obtained from mouse or rat liver. Fresh liver tissues were processed as described for the human placental 17β-HSD2 preparation. The pellet fractions containing the microsomal 17β-HSD2 were used for the determination of E1 formation.
(§1) The conversion rate was calculated after analysis of the resulting chromatograms according to the following equation: % conversion=[% E1/(% E1+% E2)]×100

[3] = target: T3, human 17β-HSD2 (Homo sapiens, UniProt P37059); experiment: Inhibition of human 17β-HSD2 (conversion of [3H]-E2 to E1); settings: for inhibition at 1 µM: read-out: % inhibition h17β-HSD2 @ 1 μM; for inhibition at 0.01 µM: read-out: % inhibition h17β-HSD2 @ 10 nM
T3 construct: 17β-HSD2 was obtained from the microsomal fraction; from tissue; host or cells: human placenta, microsomal fraction
T3 sequence (P37059 1-387): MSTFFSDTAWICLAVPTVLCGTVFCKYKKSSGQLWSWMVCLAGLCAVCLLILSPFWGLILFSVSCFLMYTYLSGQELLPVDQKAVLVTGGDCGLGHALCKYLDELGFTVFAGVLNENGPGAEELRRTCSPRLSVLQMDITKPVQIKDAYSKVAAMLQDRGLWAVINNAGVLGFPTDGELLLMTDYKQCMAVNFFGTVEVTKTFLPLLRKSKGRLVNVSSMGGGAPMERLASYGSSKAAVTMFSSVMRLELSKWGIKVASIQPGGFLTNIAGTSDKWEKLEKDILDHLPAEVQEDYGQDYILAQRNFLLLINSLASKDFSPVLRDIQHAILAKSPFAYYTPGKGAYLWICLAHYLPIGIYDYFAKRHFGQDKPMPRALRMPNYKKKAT
Experimental: Fresh human placenta was homogenized, and cytosolic fraction and microsomes were separated by differential centrifugation at 1,000 g, 10,000 g and 150,000 g.
as §1

[4] = target: T4, human 17β-HSD1 (Homo sapiens, UniProt P14061); experiment: Inhibition of human 17β-HSD1 (conversion of [3H]-E1 to E2, HPLC radioflow detection); settings: for IC50: read-out: IC50 [nM] h17β-HSD1; for inhibition at 1 µM: read-out: % inhibition h17β-HSD1 @ 1 μM; for inhibition at 0.01 µM: read-out: % inhibition h17β-HSD1 @ 10 nM
T4 construct: For the partial purification of 17β-HSD1, the cytosolic fraction was precipitated with ammonium sulfate; from tissue; host or cells: human placenta, cytosolic fraction, ammonium sulfate precipitate
T4 sequence (P14061 1-328): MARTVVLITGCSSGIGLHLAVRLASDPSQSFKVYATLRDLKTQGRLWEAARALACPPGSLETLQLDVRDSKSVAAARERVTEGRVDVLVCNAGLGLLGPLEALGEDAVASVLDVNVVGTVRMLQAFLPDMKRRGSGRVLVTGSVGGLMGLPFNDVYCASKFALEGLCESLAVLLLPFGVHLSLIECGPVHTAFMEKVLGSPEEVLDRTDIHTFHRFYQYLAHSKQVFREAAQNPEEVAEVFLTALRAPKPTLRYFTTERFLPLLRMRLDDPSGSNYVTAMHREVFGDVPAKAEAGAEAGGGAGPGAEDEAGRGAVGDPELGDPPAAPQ

[5] = read-out: % inhibition m17β-HSD1 @ 1 μM
[6] = read-out: % inhibition m17β-HSD2 @ 1 μM
[7] = human placental cytosolic enzyme, E1 500 nM, NADH, Tables 1, 4-11
[8] = read-out: Inhibition @ 1 μM m17β-HSD1
[9] = read-out: Inhibition @ 1 μM m17β-HSD2

Row | IC50 ([3]; read-out: IC50 [nM] h17β-HSD2) | IC50 [4, 7] | inhibition at 1 µM [1, 8] | inhibition at 1 µM [2, 9] | Structure (SMILES) | also measured
1 | 300 nM | 3430 nM |  |  | Cc1c(O)cccc1C(=O)c1ccc(-c2ccc(F)cc2F)s1 [B, reference compound] | inhibition at 1 µM [1, 5]: 5%; inhibition at 1 µM [2, 6]: 18%
2 | 27 nM | 130 nM | 11% | 44% | O=C(c1ccc(Br)s1)c1cc(F)c(F)c(O)c1F [Compound 1g, (5-Bromo-thiophen-2-yl)-(2,4,5-trifluoro-3-hydroxy-phenyl)-methanone] | inhibition at 1 µM [1, 5]: 11%; inhibition at 1 µM [2, 6]: 44%
3 |  |  | 14% | 23% | O=C(c1ccc(-c2cccnc2)s1)c1c(F)ccc(O)c1F [Compound 9, (2,6-Difluoro-3-hydroxy-phenyl)-(5-pyridin-3-yl-thiophen-2-yl)-methanone] | inhibition at 1 µM [3]: 64%; inhibition at 1 µM [4]: 57%
4 | 52 nM | 5.5 nM | 25% | 65% | COc1ccc(-c2sc(C(=O)c3c(F)ccc(O)c3F)cc2C)cc1Cl [Compound 13, [5-(3-Chloro-4-methoxy-phenyl)-4-methyl-thiophen-2-yl]-(2,6-difluoro-3-hydroxy-phenyl)-methanone] | 
5 | 36 nM | 7 nM | 47% | 74% | O=C(c1ccc(-c2cc(F)c(OC(F)F)c(F)c2)s1)c1c(F)ccc(O)c1F [Compound 17, (2,6-Difluoro-3-hydroxy-phenyl)-[5-(4-difluoromethoxy-3,5-difluoro-phenyl)-thiophen-2-yl]-methanone] | 
6 | 29 nM |  | 46% | 82% | O=C(c1ccc(-c2cccc(Cl)c2O)s1)c1c(F)ccc(O)c1F [Compound 22, [5-(3-Chloro-2-hydroxy-phenyl)-thiophen-2-yl]-(2,6-difluoro-3-hydroxy-phenyl)-methanone] | IC50 [4]: 27 nM
7 | 21 nM |  | 37% | 45% | COc1c(Cl)cc(-c2ccc(C(=O)c3c(F)ccc(O)c3F)s2)cc1CN1CCN(C(C)=O)CC1 [Compound 28, 1-(4-{3-Chloro-5-[5-(2,6-difluoro-3-hydroxy-benzoyl)-thiophen-2-yl]-2-methoxy-benzyl}-piperazin-1-yl)-ethanone] | IC50 [4]: 1.4 nM
8 |  |  | 20% |  | COc1c(Cl)cc(-c2ccc(C(=O)c3c(F)ccc(OC(C)=O)c3F)s2)cc1Cn1ccnn1 [Compound 31a, Acetic acid 3-[5-(3-chloro-4-methoxy-5-[1,2,3]triazol-1-ylmethyl-phenyl)-thiophene-2-carbonyl]-2,4-difluoro-phenylester] | inhibition at 1 µM [3]: 32%; inhibition at 1 µM [4]: 28%
9 | 18 nM | 59 nM | 9% | 24% | O=C(c1ccc(-c2cncc(F)c2)s1)c1cc(F)c(F)c(O)c1F [Compound 39, [5-(5-Fluoro-pyridin-3-yl)-thiophen-2-yl]-(2,4,5-trifluoro-3-hydroxy-phenyl)-methanone] | 
10 | 3 nM | 2.5 nM | 46% | 84% | O=C(c1ccc(-c2ccc(O)c(F)c2)s1)c1cc(F)c(F)c(O)c1F [Compound 42, (5-(3-Fluoro-4-hydroxyphenyl)thiophen-2-yl)(2,4,5-trifluoro-3-hydroxyphenyl)methanone] | 
11 | 7.5 nM | 28.8 nM |  |  | O=C(c1ccc(-c2ccc3cc[nH]c3c2)s1)c1cc(F)c(F)c(O)c1F [Compound 43, (5-(1H-Indol-6-yl)thiophen-2-yl)(2,4,5-trifluoro-3-hydroxyphenyl)methanone] | IC50 ([1]; recombinant mouse enzyme, E1 10 nM, NADPH): 1.14 µM; IC50 [2]: 113 nM
12 | 6.8 nM | 22.4 nM |  |  | NC(=O)c1cccc(-c2ccc(C(=O)c3cc(F)c(F)c(O)c3F)s2)c1 [Compound 44, 3-(5-(2,4,5-Trifluoro-3-hydroxybenzoyl)thiophen-2-yl)benzamide] | inhibition at 0.1 µM ([1]; read-out: % inhibition m17β-HSD1 @ 100 nM, compound 100 nM): 10%; inhibition at 0.1 µM [2]: 19%
13 | 2.3 nM | 1.2 nM | 13.4% |  | COc1c(C)cc(-c2ccc(C(=O)c3cc(F)c(F)c(O)c3F)s2)cc1C [Compound 46, (5-(4-Methoxy-3,5-dimethylphenyl)thiophen-2-yl)(2,4,5-trifluoro-3-hydroxyphenyl)methanone] | inhibition at 0.1 µM [2]: 16%
14 | 4.4 nM | 5.9 nM | 13.8% |  | O=C(c1ccc(-c2cccc(CO)c2)s1)c1cc(F)c(F)c(O)c1F [Compound 47, (5-(3-(Hydroxymethyl)phenyl)thiophen-2-yl)(2,4,5-trifluoro-3-hydroxyphenyl)methanone] | IC50 [2]: 260 nM
15 | 11.2 nM | 9.1 nM | 13.8% |  | O=C(c1ccc(-c2cc(Cl)c(O)c(Cl)c2)s1)c1cc(F)c(F)c(O)c1F [Compound 49, (5-(3,5-Dichloro-4-hydroxyphenyl)thiophen-2-yl)(2,4,5-trifluoro-3-hydroxyphenyl)methanone] | 
16 |  |  |  |  | NS(=O)(=O)c1ccc(-c2ccc(C(=O)c3c(F)ccc(O)c3F)s2)cc1 [Compound 75, 4-(5-(2,6-Difluoro-3-hydroxybenzoyl)thiophen-2-yl)benzenesulfonamide] | inhibition at 0.05 µM [2]: 10%; inhibition at 0.01 µM [3]: 54%; inhibition at 0.01 µM [4]: 18%
17 |  |  |  |  | NS(=O)(=O)c1cccc(-c2ccc(C(=O)c3c(F)ccc(O)c3F)s2)c1 [Compound 76, 3-(5-(2,6-Difluoro-3-hydroxybenzoyl)thiophen-2-yl)benzenesulfonamide] | inhibition at 0.05 µM [2]: 1.8%; inhibition at 0.01 µM [3]: 26%; inhibition at 0.01 µM [4]: 34%
18 |  |  |  |  | COc1c(Cl)cc(-c2ccc(C(=O)c3c(F)ccc(O)c3Cl)s2)cc1Cl [Compound 78, (2-Chloro-6-fluoro-3-hydroxyphenyl)(5-(3,5-dichloro-4-methoxyphenyl)thiophen-2-yl)methanone] | inhibition at 0.05 µM [2]: 76%; inhibition at 0.01 µM [3]: 54%; inhibition at 0.01 µM [4]: 41%
19 |  | 5 nM |  |  | O=C(c1cccc(O)c1)c1ccc(-c2ccc(O)c(Cl)c2)s1 [D, reference compound] | inhibition at 1 µM [1, 5]: 42%; inhibition at 1 µM [2, 6]: 9%; IC50 [3]: 240 nM
20 |  |  |  |  | Cc1c(O)cccc1C(=O)c1ccc(-c2ccc(O)c(Cl)c2)s1 [E, reference compound] | inhibition at 1 µM [1, 5]: 14%; inhibition at 1 µM [2, 6]: 92%; inhibition at 1 µM [3]: 93%; inhibition at 1 µM [4]: 76%
21 | 239 nM | 899 nM |  |  | Cc1cc(-c2ccc(C(=O)c3cccc(O)c3C)s2)cc(C)c1O [G, reference compound] | IC50 ([1]; Table 7, unit μM): 35.5 µM; IC50 [2]: 546 nM

Reference: patent US9884839B2, “Inhibitors of 17Beta-hydroxysteroid dehydrogenases type 1 and type 2” (ElexoPharm GmbH, priority 2014, dated 2018)
